Consider 16 molecules from patent US6500866B1, “1-(adamantyl)amidines and their use in the treatment of conditions generally associated with abnormalities in glutamatergic transmission” (Vernalis Research Limited, priority 1997, dated 2002).

The melting point is the temperature, or range, at which the solid turns liquid. The IC50 is the concentration that gives 50% inhibition. A low value points to greater potency in that assay.

Series [1] concerns PCP site of the NMDA receptor (cerebellar). Put plainly: [3H]-MK-801 binding, PCP site of NMDA receptor, rat cerebellar membranes. As to conditions: IC50 cortex / IC50 cerebellum. From the text:
(§1) The NMDA receptor contains several distinct binding domains that can regulate opening of the cationic channel. The phencyclidine (PCP) site of the NMDA receptor can be radiolabeled with [^3H]-(+)-5-methyl-10,11-dihydro-5H-dibenzo[a,d]cyclohepten-5,10-imine hydrogen maleate, [^3H-MK-801]. The following describes the procedure for determining the affinity of compounds for the PCP site in rat cortical or cerebellar membranes.
(§2) Frozen rat cortex or cerebellum, homogenized in 10 volumes of ice cold 0.32 M. sucrose is centrifuged at 1,000 g for 12 min and the supernatant stored on ice whilst the pellet was resuspended, rehomogenized and recentrifuged twice more. The three final supernatants were pooled and centrifuged at 30,000 g for 40 min at 4° C. to yield P2 pellets. These were resuspended in ice-cold distilled water, and centrifuged at 30,000 g for 50 min at 4° C. Following three further washes in distilled water, the P2 pellets were stored at −20° C. for at least 18 h. On the day of the assay, membrane pellets were thawed at room temperature, resuspended in ice-cold distilled water and centrifuged at 30,000 g for 20 min. The pellets were resuspended in 50 mM tris-HCl (pH:7.4) and recentrifuged twice more before being resuspended in tris-HCl for immediate use in the assay. Binding assays were performed at equilibrium in a total volume of 200 μl, containing, [^3H]-MK-801 (5 nM final conc.), 10 μM glutamate, 10 μM glycine, 160 μl of membrane preparation and additional drugs where appropriate. Non-specific binding was determined using MK-801 (10 μM). The assay was incubated for 120 min at room temperature. The incubation was terminated by rapid filtration through Whatman GF/B filters (pre-soaked in 0.1% PEI solution). The assay tubes and filters were washed five times with 1 ml of ice cold assay buffer. The filters were placed in poly-Q mini vials with approximately 5 ml of scintillation fluid. The vials are then shaken and left for at least 8 hours before being counted on a liquid scintillation counter. To determine the free ligand concentration 3 aliquots (20 μl) of the [^3H]-MK-801 working solution were also counted. Concentration response data for drugs was analysed using a 4 parameter equation fitted by non linear regression. This yielded the half maximally effective drug concentration (IC50) and Hill coefficient.

The target of series [2] is T1, PCP site of the NMDA receptor (cerebellar).
T1 construct: IC50(μM) Cerebellum; other: rat cerebellum membranes, [3H]-MK-801 5 nM, 10 μM glutamate, 10 μM glycine
The description is as above. The conditions noted are these: rat cerebellum membranes, [3H]-MK-801 5 nM, 10 μM glutamate, 10 μM glycine.
Source text: as §1, §2

Series [3] deals with PCP site of the NMDA receptor (cortical). The experiment in a line: [3H]-MK-801 binding, PCP site of NMDA receptor, rat cortical membranes. As to conditions: rat cortex membranes, [3H]-MK-801 5 nM, 10 μM glutamate, 10 μM glycine.
Source text: as §1, §2

Counter-ions that a name gives are not always drawn.

Molecule `N=C(N)C12CC3CC(CC(Cl)(C3)C1)C2` (as salt: hydrochloride) [Example 2, 3-Chloro-1-adamantanecarboximidamide hydrochloride] displayed a melting point of 215 to 216 °C.
Same read-out and setting: for `N=C(N)C12CC3CC(CC(Br)(C3)C1)C2` (as salt: hydrochloride) [Example 3, 3-Bromo-1-adamantanecarboximidamide hydrochloride] the value was 221 to 223 °C.
`CCC12CC3CC(C1)CC(C(=N)N)(C3)C2` (as salt: hydrochloride) [Example 4, 3-Ethyl-1-adamantanecarboximidamide hydrochloride] showed a melting point of 210 to 212 °C.
The molecule `CC12CC3CC(C)(C1)CC(CC(=N)N)(C3)C2` (as salt: hydrochloride) [Example 5, 3,5-Dimethyl-1-adamantaneacetiniidamide hydrochloride] showed a melting point of 252 to 253 °C.
The molecule `C=CCNC(=N)C12CC3CC(C)(CC(C)(C3)C1)C2` (as salt: hydrochloride) [Example 6, N-Allyl-3,5-dimethyl-1-adamantanecarboximidamide hydrochloride] came in with a melting point of 222 to 224 °C.
`C=CCNC(=N)C12CC3CC(CC(C3)C1)C2` (as salt: hydrochloride) [Example 7, N-Allyl-1-adamantanecarboximidamide hydrochloride] yielded a melting point of 252 to 254 °C.
Still for that read-out and setting: next, `CCNC(=N)C12CC3CC(CC(C3)C1)C2` (as salt: hydrochloride) [Example 8, N-Ethyl-1-adamantanecarboximidainide hydrochloride]: 315 °C (dec.); `N=C(NCc1ccccc1)C12CC3CC(CC(C3)C1)C2` (as salt: hydrochloride) [Example 9, N-Benzyl-1-adamantanecarboximidamide hydrochloride]: 242 to 244 °C.
With `CN(C)CCNC(=N)C12CC3CC(CC(C3)C1)C2` (as salt: hydrochloride) [Example 10, N-(2-Dimethylaminoethyl)-1-adamantanecarboximidamide dihydrochloride], the melting point is 293 °C (dec.).
On to `CC12CC3CC(C)(C1)CC(CCC(=N)N)(C3)C2` (as salt: hydrochloride) [Example 11, 3-(3,5-Dimethyl-1-adamantyl)propanimidamide hydrochloride], for which the melting point fell in the range of 246 to 248 °C.
As to `CC12CC3CC(C)(C1)CC(CC(=N)N)(C3)C2` [Example 5, 3,5-Dimethyl-1-adamantaneacetiniidamide hydrochloride], the “Ratio of cortical to cerebellar binding affinity” value in series [1] is listed as 1.5. Besides, the IC50 worked out at 56 µM in series [2] and 82 µM in series [3].
For `CC12CC3CC(C1)CC(C(=N)N)(C3)C2.Cl` [Example 12, 3-Methyl-1-adamantanecarboximidamide hydrochloride], in that order: 2.7, 36 µM and 96 µM.
For `CC12CC3(C)CC(C)(C1)CC(C(=N)N)(C2)C3.Cl` [Example 13, 3,5,7-Trimethyl-1-adamantanecarboximidamide hydrochloride], in that order: 2.4, 18 µM and 43 µM.
The like results for `Cl.N=C(N)C12CC3CC(C1)CC(c1ccc([N+](=O)[O-])cc1)(C3)C2` [Example 14, 3-(4-Nitrophenyl)-1-adamantanecarboximidamide hydrochloride] were, in that order, 1.7, 234 µM and 406 µM.
For the molecule `Cl.N=C(N)C(Cc1ccccc1)C12CC3CC(CC(C3)C1)C2` (centres unmarked) [Example 16, 2-(1-Adamantyl)-3-phenylpropanimidamide hydrochloride], the “Ratio of cortical to cerebellar binding affinity” value in series [1] turned out to be 1.9. Besides, the IC50 in series [2] worked out at 27 µM; in series [3], 52 µM.
As to `N=C(N)CC(c1ccccc1)C12CC3CC(CC(C3)C1)C2` (centres unmarked) [Example 18, 3-(1-Adamantyl)-3-phenylpropanimidamide hydrochloride], the IC50 in series [3] stood at 27 µM.
